Broadly, the IC50 is the concentration needed to halve the response being measured. Higher therefore signals lower potency.

Where only a bound is given, the exact number is not on record here.

IC50 data for 22 molecules are collected here from patent US20260274829A1, “NEW E3 UBIQUITIN LIGASE LIGAND, PROTEIN DEGRADATION AGENT AND USE THEREOF” (GLUETACS THERAPEUTICS (SHANGHAI) CO., LTD., priority 2023, published 2026).

T1 sequence (Q96SW2 whole entry): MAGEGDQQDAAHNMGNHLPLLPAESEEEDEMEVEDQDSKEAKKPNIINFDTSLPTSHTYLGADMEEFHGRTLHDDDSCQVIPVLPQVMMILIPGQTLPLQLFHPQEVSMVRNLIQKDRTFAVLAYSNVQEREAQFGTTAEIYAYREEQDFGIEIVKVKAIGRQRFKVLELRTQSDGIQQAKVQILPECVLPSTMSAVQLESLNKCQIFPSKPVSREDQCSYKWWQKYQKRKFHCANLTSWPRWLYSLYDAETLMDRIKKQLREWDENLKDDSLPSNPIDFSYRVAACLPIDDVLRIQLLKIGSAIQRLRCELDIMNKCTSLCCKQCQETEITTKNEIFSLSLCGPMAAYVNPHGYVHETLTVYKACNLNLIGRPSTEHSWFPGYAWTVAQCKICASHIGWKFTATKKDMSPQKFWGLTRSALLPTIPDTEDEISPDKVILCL

This assay concerns the target T1, human Cereblon WT GST-tagged protein (Homo sapiens, UniProt Q96SW2).
T1 construct: purchased CISBIO 64BDCRBNPEH
The assay can be described thus: CRBN binding, HTRF CEREBLON BINDING kit. As to conditions: CRBN binding, HTRF CEREBLON BINDING kit. The essentials: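 Binding inhibition was calculated from the 665/620 nm emission ratios, with blank wells and solvent wells as references. Test compounds competed for GST-tagged human Cereblon WT against a Thalidomide-Re reagent paired with GST Eu antibody. Plates were sealed and held at room temperature for 3 hours before the HTRF read.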
In general terms: In TR-FRET formats the signal depends on donor and acceptor labels being close together.
In turn, `CC(=O)c1c(C)c2cnc(Nc3ccc(N4CCN(Cc5cccc(N6CCC(=O)NC6=O)c5)CC4)cn3)nc2n(C2CCCC2)c1=O` [GT-06577, 1-(3-((4-(6-((6-acetyl-8-cyclopentyl-5-methyl-7-oxo-7,8-dihydropyrido[2,3-d]pyrimidin-2-yl)amino)pyridin-3-yl)piperazin-1-yl)methyl)phenyl)dihydropyrimidine-2,4(1H,3H)-dione] came in with a half-inhibitory concentration (IC50) of 1 to 1.9 µM.

In turn, `CC(=O)c1c(C)c2cnc(Nc3ccc(N4CCN(Cc5ccc(N6CCC(=O)NC6=O)cn5)CC4)cn3)nc2n(C2CCCC2)c1=O` [GT-06578, 1-(6-((4-(6-((6-acetyl-8-cyclopentyl-5-methyl-7-oxo-7,8-dihydropyrido[2,3-d]pyrimidin-2-yl)amino)pyridin-3-yl)piperazin-1-yl)methyl)pyridin-3-yl)dihydropyrimidine-2,4(1H,3H)-dione] returned an IC50 of 1 to 1.9 µM.

Take `CC(=O)c1c(C)c2cnc(Nc3ccc(N4CCC(N5CCN(Cc6ccc(C7CCC(=O)NC7=O)cc6)CC5)CC4)cn3)nc2n(C2CCCC2)c1=O` (stereo not shown) [GT-06659, 3-(4-((4-(1-(6-((6-acetyl-8-cyclopentyl-5-methyl-7-oxo-7,8-dihydropyrido[2,3-d]pyrimidin-2-yl)amino)pyridin-3-yl)piperidin-4-yl)piperazin-1-yl)methyl)phenyl)piperidine-2,6-dione]: the IC50 lay within 0.5 to 1 µM.

`Cc1nc2c(F)cc(-c3nc(Nc4ccc(CN5CCN(Cc6ccc(C7CCC(=O)NC7=O)cc6)CC5)cn4)ncc3F)cc2n1C(C)C` (stereo not shown) [GT-06664, 3-(4-((4-((6-((5-fluoro-4-(4-fluoro-1-isopropyl-2-methyl-1H-benzo[d]imidazol-6-yl)pyrimidin-2-yl)amino)pyridin-3-yl)methyl)piperazin-1-yl)methyl)phenyl)piperidine-2,6-dione]: the IC50 lay within 0.5 to 1 µM.

`Cc1nc2c(F)cc(-c3nc(Nc4ccc(CN5CCN(Cc6ccc(N7CCC(=O)NC7=O)cc6)CC5)cn4)ncc3F)cc2n1C(C)C` [GT-06665, 1-(4-((4-((6-((5-fluoro-4-(4-fluoro-1-isopropyl-2-methyl-1H-benzo[d]imidazol-6-yl)pyrimidin-2-yl)amino)pyridin-3-yl)methyl)piperazin-1-yl)methyl)phenyl)dihydropyrimidine-2,4(1H,3H)-dione] displayed a half-maximal inhibitory concentration (IC50) of 1 to 1.9 µM.

On to `Cc1nc2c(F)cc(-c3nc(Nc4ccc(CN5CCN(Cc6cccc(N7CCC(=O)NC7=O)c6)CC5)cn4)ncc3F)cc2n1C(C)C` [GT-06666, 1-(3-((4-((6-((5-fluoro-4-(4-fluoro-1-isopropyl-2-methyl-1H-benzo[d]imidazol-6-yl)pyrimidin-2-yl)amino)pyridin-3-yl)methyl)piperazin-1-yl)methyl)phenyl)dihydropyrimidine-2,4(1H,3H)-dione], for which the 50% inhibitory concentration (IC50) was under 0.5 µM.

Turning to `Cc1nc2c(F)cc(-c3nc(Nc4ccc(CN5CCN(Cc6ccc(N7CCC(=O)NC7=O)cn6)CC5)cn4)ncc3F)cc2n1C(C)C` [GT-06667, 1-(6-((4-((6-((5-fluoro-4-(4-fluoro-1-isopropyl-2-methyl-1H-benzo[d]imidazol-6-yl)pyrimidin-2-yl)amino)pyridin-3-yl)methyl)piperazin-1-yl)methyl)pyridin-3-yl)dihydropyrimidine-2,4(1H,3H)-dione], the IC50 was in the range of 1 to 1.9 µM.

For the molecule `Cc1nc2c(F)cc(-c3nc(Nc4ccc(N5CCC(N(C)Cc6ccc(C7CCC(=O)NC7=O)cc6)CC5)cn4)ncc3F)cc2n1C(C)C` (stereo not shown) [GT-06735, 3-(4-(((1-(6-((5-fluoro-4-(4-fluoro-1-isopropyl-2-methyl-1H-benzo[d]imidazol-6-yl)pyrimidin-2-yl)amino)pyridin-3-yl)piperidin-4-yl)(methyl)amino)methyl)phenyl)piperidine-2,6-dione], the IC50 is 0.5 to 1 µM.

Turning to `Cc1nc2c(F)cc(-c3nc(Nc4ccc(N5CCC(N6CCN(Cc7ccc(N8CCC(=O)NC8=O)cc7)CC6)CC5)cn4)ncc3F)cc2n1C(C)C` [GT-06739, 1-(4-((4-(1-(6-((5-fluoro-4-(4-fluoro-1-isopropyl-2-methyl-1H-benzo[d]imidazol-6-yl)pyrimidin-2-yl)amino)pyridin-3-yl)piperidin-4-yl)piperazin-1-yl)methyl)phenyl)dihydropyrimidine-2,4(1H,3H)-dione], the IC50 lay in the range of 0.5 to 1 µM.

Take `Cc1nc2c(F)cc(-c3nc(Nc4ccc(N5CCC(N6CCN(Cc7cccc(N8CCC(=O)NC8=O)c7)CC6)CC5)cn4)ncc3F)cc2n1C(C)C` [GT-06740, 1-(3-((4-(1-(6-((5-fluoro-4-(4-fluoro-1-isopropyl-2-methyl-1H-benzo[d]imidazol-6-yl)pyrimidin-2-yl)amino)pyridin-3-yl)piperidin-4-yl)piperazin-1-yl)methyl)phenyl)dihydropyrimidine-2,4(1H,3H)-dione]: the IC50 is 0.5 to 1 µM.

`Cc1nc2c(F)cc(-c3nc(Nc4ccc(N5CCC(N6CCN(Cc7ccc(N8CCC(=O)NC8=O)cn7)CC6)CC5)cn4)ncc3F)cc2n1C(C)C` [GT-06741, 1-(6-((4-(1-(6-((5-fluoro-4-(4-fluoro-1-isopropyl-2-methyl-1H-benzo[d]imidazol-6-yl)pyrimidin-2-yl)amino)pyridin-3-yl)piperidin-4-yl)piperazin-1-yl)methyl)pyridin-3-yl)dihydropyrimidine-2,4(1H,3H)-dione] returned an IC50 of 0.5 to 1 µM.

Molecule `Cc1nc2c(F)cc(-c3nc(Nc4ccc(N5CCC(N6CCN(Cc7cccc(NC8CCC(=O)NC8=O)c7)CC6)CC5)cn4)ncc3F)cc2n1C(C)C` (stereo not shown) [GT-06743, 3-((3-((4-(1-(6-((5-fluoro-4-(4-fluoro-1-isopropyl-2-methyl-1H-benzo[d]imidazol-6-yl)pyrimidin-2-yl)amino)pyridin-3-yl)piperidin-4-yl)piperazin-1-yl)methyl)phenyl)amino)piperidine-2,6-dione] returned an IC50 of 1 to 1.9 µM.

`Nc1nc(Nc2ccc(S(=O)(=O)N3CCN(Cc4ccc(C5CCC(=O)NC5=O)cc4)CC3)cc2)nn1C(=O)c1c(F)cccc1F` (stereo not shown) [GT-06750, 3-(4-((4-((4-((5-amino-1-(2,6-difluorobenzoyl)-1H-1,2,4-triazol-3-yl)amino)phenyl)sulfonyl)piperazin-1-yl)methyl)phenyl)piperidine-2,6-dione] displayed an IC50 of 0.5 to 1 µM.

In turn, `Nc1nc(Nc2ccc(S(=O)(=O)N3CCN(Cc4ccc(N5CCC(=O)NC5=O)cc4)CC3)cc2)nn1C(=O)c1c(F)cccc1F` [GT-06751, 1-(4-((4-((4-((5-amino-1-(2,6-difluorobenzoyl)-1H-1,2,4-triazol-3-yl)amino)phenyl)sulfonyl)piperazin-1-yl)methyl)phenyl)dihydropyrimidine-2,4(1H,3H)-dione] had an IC50 of 1 to 1.9 µM.

In turn, `Cc1cc(S(=O)(=O)N2CCN(Cc3cccc(N4CCC(=O)NC4=O)c3)CC2)ccc1Nc1ncc(Br)c(Nc2cccc(F)c2C(N)=O)n1` [GT-06832, 2-((5-bromo-2-((4-((4-(3-(2,4-dioxotetrahydropyrimidin-1(2H)-yl)benzyl)piperazin-1-yl)sulfonyl)-2-methylphenyl)amino)pyrimidin-4-yl)amino)-6-fluorobenzamide] showed an IC50 of under 0.5 µM.

In the case of `Cc1nc2c(F)cc(-c3nc(Nc4ccc(N5CCC(N(C)Cc6ccc(N7CCC(=O)NC7=O)cc6)CC5)cn4)ncc3F)cc2n1C(C)C` [GT-06838, 1-(4-(((1-(6-((5-fluoro-4-(4-fluoro-1-isopropyl-2-methyl-1H-benzo[d]imidazol-6-yl)pyrimidin-2-yl)amino)pyridin-3-yl)piperidin-4-yl)(methyl)amino)methyl)phenyl)dihydropyrimidine-2,4(1H,3H)-dione], the IC50 lay within 0.5 to 1 µM.

In turn, `Cc1nc2c(F)cc(-c3nc(Nc4ccc(N5CCC(N(C)Cc6cccc(N7CCC(=O)NC7=O)c6)CC5)cn4)ncc3F)cc2n1C(C)C` [GT-06839, 1-(3-(((1-(6-((5-fluoro-4-(4-fluoro-1-isopropyl-2-methyl-1H-benzo[d]imidazol-6-yl)pyrimidin-2-yl)amino)pyridin-3-yl)piperidin-4-yl)(methyl)amino)methyl)phenyl)dihydropyrimidine-2,4(1H,3H)-dione] displayed an IC50 of 1 to 1.9 µM.

Take `CN(Cc1ccc(N2CCC(=O)NC2=O)cn1)C1CCN(c2ccc(Nc3ncc4nc(Nc5ccccc5)n(C5CCCC5)c4n3)cc2)CC1` [GT-07093, 1-(6-(((1-(4-((9-cyclopentyl-8-(phenylamino)-9H-purin-2-yl)amino)phenyl)piperidin-4-yl)(methyl)amino)methyl)pyridin-3-yl)dihydropyrimidine-2,4(1H,3H)-dione]: the IC50 lay in the range of 0.5 to 1 µM.

`CN(Cc1cccc(NC2CCC(=O)NC2=O)c1)C1CCN(c2ccc(Nc3ncc4nc(Nc5ccccc5)n(C5CCCC5)c4n3)cc2)CC1` (stereo not shown) [GT-07094, 3-((3-(((1-(4-((9-cyclopentyl-8-(phenylamino)-9H-purin-2-yl)amino)phenyl)piperidin-4-yl)(methyl)amino)methyl)phenyl)amino)piperidine-2,6-dione] displayed an IC50 of 1 to 1.9 µM.

Regarding `CCc1cc2c(cc1N1CCC(N3CCN(Cc4ccc(N5CCC(=O)NC5=O)cc4)CC3)CC1)C(C)(C)c1[nH]c3cc(C#N)ccc3c1C2=O` [GT-07307, 8-(4-(4-(4-(2,4-dioxotetrahydropyrimidin-1(2H)-yl)benzyl)piperazin-1-yl)piperidin-1-yl)-9-ethyl-6,6-dimethyl-11-oxo-6,11-dihydro-5H-benzo[b]carbazole-3-carbonitrile], the IC50 fell in the range of 0.5 to 1 µM.

As for `CCc1cc2c(cc1N1CCC(N3CCN(Cc4ccc(N5CCC(=O)NC5=O)c(F)c4)CC3)CC1)C(C)(C)c1[nH]c3cc(C#N)ccc3c1C2=O` [GT-07308, 8-(4-(4-(4-(2,4-dioxotetrahydropyrimidin-1(2H)-yl)-3-fluorobenzyl)piperazin-1-yl)piperidin-1-yl)-9-ethyl-6,6-dimethyl-11-oxo-6,11-dihydro-5H-benzo[b]carbazole-3-carbonitrile], the IC50 lay within 0.5 to 1 µM.

Regarding `CCc1cc2c(cc1N1CCC(N3CCN(Cc4ccc(N5CCC(=O)NC5=O)cc4F)CC3)CC1)C(C)(C)c1[nH]c3cc(C#N)ccc3c1C2=O` [GT-07309, 8-(4-(4-(4-(2,4-dioxotetrahydropyrimidin-1(2H)-yl)-2-fluorobenzyl)piperazin-1-yl)piperidin-1-yl)-9-ethyl-6,6-dimethyl-11-oxo-6,11-dihydro-5H-benzo[b]carbazole-3-carbonitrile], the IC50 was in the range of 0.5 to 1 µM.
